Some results are limits rather than exact numbers.

Sequence of rat NR1/NR2B receptor (Q00960 27-1482, other chains not shown): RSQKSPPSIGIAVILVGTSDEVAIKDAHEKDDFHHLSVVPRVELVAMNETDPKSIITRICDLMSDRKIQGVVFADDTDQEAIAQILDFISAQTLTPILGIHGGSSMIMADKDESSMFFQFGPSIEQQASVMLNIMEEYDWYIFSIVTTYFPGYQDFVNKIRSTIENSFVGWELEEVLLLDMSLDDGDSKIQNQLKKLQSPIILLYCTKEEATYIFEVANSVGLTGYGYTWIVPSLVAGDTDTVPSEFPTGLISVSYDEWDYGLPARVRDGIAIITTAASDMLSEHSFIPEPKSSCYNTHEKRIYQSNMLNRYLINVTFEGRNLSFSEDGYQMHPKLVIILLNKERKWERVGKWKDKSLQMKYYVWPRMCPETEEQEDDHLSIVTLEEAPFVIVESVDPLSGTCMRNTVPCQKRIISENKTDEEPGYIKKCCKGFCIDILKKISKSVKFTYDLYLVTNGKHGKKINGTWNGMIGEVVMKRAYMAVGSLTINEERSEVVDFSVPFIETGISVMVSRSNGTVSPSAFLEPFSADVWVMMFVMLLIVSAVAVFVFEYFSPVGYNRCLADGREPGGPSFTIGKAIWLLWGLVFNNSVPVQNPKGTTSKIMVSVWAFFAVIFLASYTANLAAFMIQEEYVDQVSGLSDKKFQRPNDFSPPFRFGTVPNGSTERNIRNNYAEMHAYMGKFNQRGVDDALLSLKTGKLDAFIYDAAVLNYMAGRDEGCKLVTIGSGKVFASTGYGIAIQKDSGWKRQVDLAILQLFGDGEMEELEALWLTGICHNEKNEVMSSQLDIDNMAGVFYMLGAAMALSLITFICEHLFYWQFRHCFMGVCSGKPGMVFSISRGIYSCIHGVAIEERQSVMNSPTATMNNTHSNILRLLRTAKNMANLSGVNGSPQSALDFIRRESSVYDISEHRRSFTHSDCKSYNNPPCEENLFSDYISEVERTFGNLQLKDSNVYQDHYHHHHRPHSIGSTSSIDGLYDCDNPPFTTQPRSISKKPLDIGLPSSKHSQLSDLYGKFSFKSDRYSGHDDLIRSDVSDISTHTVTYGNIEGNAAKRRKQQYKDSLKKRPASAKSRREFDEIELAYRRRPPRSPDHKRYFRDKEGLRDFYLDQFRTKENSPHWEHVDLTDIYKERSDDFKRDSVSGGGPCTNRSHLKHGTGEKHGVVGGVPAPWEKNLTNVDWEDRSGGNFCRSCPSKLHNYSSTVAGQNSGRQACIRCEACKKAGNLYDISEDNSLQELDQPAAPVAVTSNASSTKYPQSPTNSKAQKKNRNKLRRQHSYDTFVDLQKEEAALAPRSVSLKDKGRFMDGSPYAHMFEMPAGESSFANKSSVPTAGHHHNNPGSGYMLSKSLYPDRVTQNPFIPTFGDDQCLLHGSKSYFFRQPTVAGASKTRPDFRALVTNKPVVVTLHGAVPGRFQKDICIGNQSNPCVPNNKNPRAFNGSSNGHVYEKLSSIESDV

The target of one test is rat NR1/NR2B receptor (Rattus norvegicus (Rat), UniProt P35439+Q00960). Put plainly: NR2B binding assay: inhibition of specific [3H]-Ifenprodil binding to the rat NR1/NR2B receptor. Conditions: rat brain membranes, Hill-plot 2-parameter-model. The method in brief:
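Nonspecific binding was defined with […] CP101.606, and bound radioactivity was separated by filtration over PEI-soaked filters. IC50 was fitted with a Hill-plot 2-parameter model.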
In general, IC50 refers to the concentration at which inhibition is half-maximal. Low readings indicate inhibition by little substance, high ones a need for much substance. Compound `Nc1nccn1Cc1cn(-c2ccc(Cl)c(C(F)F)c2)nn1` [Example 113A, 4-(2-amino-imidazol-1-ylmethyl)-1-(4-chloro-3-difluoromethyl-phenyl)-1H-[1,2,3]triazole] showed a half-inhibitory concentration (IC50) of 0.65 nM. In other words, the sub-nanomolar range.
`Cc1nccn1Cc1cn(-c2ccc(F)c(C(F)F)c2)nn1` [Example 81, 1-(3-Difluoromethyl-4-fluoro-1-phenyl)-4-(2-methyl-imidazol-1-ylmethyl)-1H-[1,2,3]triazole] yielded a half-inhibitory concentration (IC50) of 3.83 nM.
On the same count and under the same terms, for `CC(F)(F)c1cc(-n2cc(Cn3ccnc3N)nn2)ccc1F` [Example 114] the value was 0.51 nM; for `Cn1nccc1Cc1cn(-c2ccc(F)c(Cl)c2)nn1` [Example 109, 1-(3-Chloro-4-fluoro-phenyl)-4-(2-methyl-2H-pyrazol-3-ylmethyl)-1H-[1,2,3]triazole], 4320 nM; for `Cc1nccn1Cc1cn(-c2ccc(Cl)c(OC(F)F)c2)nn1` [Example 93, 1-(4-Chloro-3-difluoromethoxy-phenyl)-4-(2-methyl-imidazol-1-ylmethyl)-1H-[1,2,3]triazole], 1.2 nM.
`OCCc1nccn1Cc1cn(-c2ccc(F)c(OC(F)F)c2)nn1` [Example 101, 1-(3-Difluoromethoxy-4-fluoro-phenyl)-4-[2-(2-hydroxy-ethyl)-imidazol-1-ylmethyl]-1H-[1,2,3]triazole] registered a 50% inhibitory concentration (IC50) of 4.26 nM.
Same read-out and setting: in the case of `Nc1nccn1Cc1cn(-c2ccc(F)c(C(F)F)c2)nn1` [Example 113B, 4-(2-amino-imidazol-1-ylmethyl)-1-(4-fluoro-3-difluoromethyl-phenyl)-1H-[1,2,3]triazole] it was 0.48 nM; in that of `Fc1ccc(-n2cc(Cn3ccnc3C3CC3)nn2)cc1C(F)F` [Example 82, 4-(2-Cyclopropyl-imidazol-1-ylmethyl)-1-(3-difluoromethyl-4-fluoro-phenyl)-1H-[1,2,3]triazole], 16.2 nM.
`CC(C)c1nccn1Cc1cn(-c2ccc(F)c(C(F)F)c2)nn1` [Example 84, 1-(3-Difluoromethyl-4-fluoro-phenyl)-4-(2-isopropyl-imidazol-1-ylmethyl)-1H-[1,2,3]triazole] registered an IC50 of 11 nM.
The same measure, in the same setting: in the case of `CC(C)c1nccn1Cc1cn(-c2ccc(Cl)cc2)nn1` [Example 23, 1-(4-Chloro-phenyl)-4-(2-isopropyl-imidazol-1-ylmethyl)-1H-[1,2,3]triazole] it was 77.4 nM.

The subject of a further test is Male NMRI mice. Put plainly: Forced swim test in mice. In kind it is in vivo. Conditions: p.o. 30 minutes before the test. How it is done: The method, which detects antidepressant activity, follows that described by Porsolt et al (Arch. Int. Pharmacodyn., 229, 327-336, 1977), which is incorporated by reference herein in its entirety.
Mice forced to swim in a situation from which they cannot escape rapidly become immobile. Antidepressants decrease the duration of immobility.
Male NMRI mice (Janvier, France), weighing 20-30 g, were individually placed in a cylinder (height=24 cm; diameter=13 cm) containing 10 cm water (22° C.) from which they cannot escape.
The mice were placed in the water for 6 minutes and the duration of immobility during the last 4 minutes was measured. The latency to the first bout of immobility was also recorded starting from the beginning of the test. 10 mice were studied per group. The test substance was administered p.o. 30 minutes before the test and compared with vehicle control group. The test was performed blind.
Regarding `OCCc1nccn1Cc1cn(-c2ccc(F)c(OC(F)F)c2)nn1` [Example 101, 1-(3-Difluoromethoxy-4-fluoro-phenyl)-4-[2-(2-hydroxy-ethyl)-imidazol-1-ylmethyl]-1H-[1,2,3]triazole], the “Minimum effective dose (mg/kg p.o.)” value was above 30 mg/kg.
On the same count and under the same terms, for `Fc1ccc(-n2cc(Cn3ccnc3C3CC3)nn2)cc1C(F)F` [Example 82, 4-(2-Cyclopropyl-imidazol-1-ylmethyl)-1-(3-difluoromethyl-4-fluoro-phenyl)-1H-[1,2,3]triazole] the value was 60 mg/kg.

The values above are taken from patent US9981950B2, “Triazoles as NR2B receptor inhibitors” (Janssen Pharmaceuticals, Inc., priority 2014, dated 2018).
